The results in this text go back to patent US20140371165A1, “Identification of NSC23925 Isomers to Reverse Multidrug Resistance in Human Cancers” (priority 2012, published 2014).

SMILES strings stand for the structures.

One data set deals with SKOV-3TR. Description: MTT cytotoxicity assay and reversal of MDR in SKOV-3TR. The class given is cell-based, human. The settings on record: for potency of isomer on reversing drug resistance: with paclitaxel, MTT 6 days post-treatment; for IC50: Homo sapiens, SKOV3TR, 144 h, without NSC23925b, MTT, 6 days, read-out: IC50 of chemotherapy drug alone. The text has this:
(§1) A panel of parental cancer cell line and their daughter resistant cell lines, displaying MDR phenotype were used in this study. Human ovarian cancer cell line SKOV-3, breast cancer cell line MCF-7 and colon cancer cell line SW480, the osteosarcoma cell line U-2OS, KHOS, uterine sarcoma cell line MESSA and its doxorubicin selected drug resistant cell line MESSA/Dx5, non-small cell lung cancer cell line H-69 and its doxorubicin selected drug resistant cell line H-69AR (overexpress MRP1) were obtained from the ATCC (Rockville, Md.). Dr. Efstathios Gonos (Institute of Biological Research & Biotechnology, Athens, Greece) provided the doxorubicin resistant U-2OS R2 (referred in the text below as U-2OSDR), KHOS R2 cell lines. Dr. Erasmus Schneider (Wadsworth Center, Albany) provided the mitoxantrane resistant breast cancer MCF-7/MX (overexpress BCRP) cell line. All the cell lines were cultured in RPMI 1640 (Invitrogen, Carlsbad, Calif.) supplemented with 10% fetal bovine serum, 100-units/ml penicillin and 100 μg/ml streptomycin (Invitrogen). Cells were incubated at 37° C. in 5% CO2-95% air atmosphere and passaged when near confluent monolayers were achieved using 2% trypsin-EDTA solution. […] The fresh chemotherapy drugs were obtained from the pharmacy at the Massachusetts General Hospital and stored at −20° C.
(§2) To evaluate for reversal of Pgp-mediated MDR, SKOV-3TR, MCF-7adr and SW480TR cell lines were seeded into 96-well tissue culture plate at 2,000 cells per well with varying concentrations of chemotherapy drugs and NSC23925b for 6 days. Cell proliferation IC50 (concentration required for 50% inhibition) and MDR reversal IC50 were determined from dose-response curves carried out in triplicate in 96-well plate. Fold of reverse resistance for individual drugs were defined as the IC50 of MDR cells without NSC23925b treatment divided by the IC50 of MDR cells treated with NSC23925b. […] Drug cytotoxicity was assessed in vitro using the MTT assay as previously described. […] Response curves were fitted with use of GraphPad PRISM 4 software (GraphPad Software).
Structure and activity relationship (SAR) of the four NSC23925 isomers for reversing MDR were evaluated in human ovarian cancer MDR cell line SKOV-3TR by MTT assay (FIGS. 1A-D). Cells were treated with the paclitaxel and NSC23925 diastereomers NSC23925a (FIG. 1A), NSC23925b (FIG. 1B), NSC23925c (FIG. 1C) and NSC23925d (FIG. 1D) in RPMI1640 complete media at the indicated concentrations. The relative sensitivity of each line to paclitaxel was determined by MTT analysis 6 days post-treatment.
(Formazan colour is commonly taken as a measure of viable cells.)

Data set [1] can be described thus: Solubility in organic solvents. The format is physicochemical. Particulars: volume of methanol for 5 milligram.
The next data set relates to MCF-7adr. As to the kind of experiment: MTT cytotoxicity assay and reversal of MDR in MCF-7adr. The class given is cell-based, human. The settings on record: Homo sapiens, NCI/ADR-RES, 144 h, without NSC23925b, MTT, 6 days, read-out: IC50 of chemotherapy drug alone.
Excerpt: as §1, §2
(§3) MCF-7adr and SW480TR cells were treated with paclitaxel (FIGS. 2A-B), doxorubicin (FIGS. 2C-D) or mitoxantrane (FIGS. 2E-F) and NSC23925b in RPMI1640 complete media at the indicated concentrations. The relative sensitivity of each line to the indicated drugs was determined by MTT analysis 6 days post-treatment.

For another data set, the system named is SW480TR. Description: MTT cytotoxicity assay and reversal of MDR in SW480TR. The class given is cell-based, human. The settings on record: Homo sapiens, 144 h, without NSC23925b, MTT, 6 days, read-out: IC50 of chemotherapy drug alone.
Excerpt: as §1, §2, §3

For data set [2], the system named is SKOV-3TR xenograft tumors. As to the kind of experiment: SKOV-3TR xenograft tumor growth in nude mice. The settings on record: alone; i.p. twice a week for two weeks; paclitaxel 20 mg/kg or NSC23925b 40 mg/kg. How it is done: The Crl:SHO-Prkdc^SCIDHr^hr nude female mice at approximately 3-4 weeks of age were purchased from The Charles River Laboratories (Ann Arbor, Mich.). Animal studies were carried out with protocols approved by the Massachusetts General Hospital Subcommittee on Research Animal Care (SRAC). To determine the effect of NSC23925b on paclitaxel sensitivity in xenograft model, 5×10^6 SKOV-3TR cells were injected subcutaneously with matrigel (BD Biosciences, San Jose, Calif.) on day one. Two weeks after injection, the mice were divided into four groups to start the treatments. Group one was received intraperitoneal (i.p) injection with normal saline, group two with paclitaxel (20 mg/kg), group three with NSC23925b (40 mg/kg). […] All four groups were treated twice a week for two weeks. The health of the mice and evidence of tumor growth were examined daily. Tumors were measured twice a week with a digital caliper. Tumor volume (mm^3) was calculated as (W^2×L)/2, where W is width and L is length. The curve of tumor growth was drawn according to tumor volume by using of GraphPad PRISM 4 software.
To further evaluate the effects of NSC23925b and paclitaxel combination therapy on the tumor growth of resistant cells, the growth of xenograft tumors were examined. A well-characterized ovarian cancer MDR cell line SKOV-3TR was chosen for in vivo studies. […] Tumors were measured twice a week with a digital caliper. Tumor volume (mm^3) was calculated as (W^2×L)/2, where W is width and L is length (FIG. 5A). Representative images of dissected tumor tissues from treated nude mice.

Take `COc1ccc(-c2cc([C@@H](O)[C@H]3CCCCN3)c3ccccc3n2)cc1.Cl` (single isomer, unassigned) [NSC23925c, (2-(4-methoxyphenyl)quinolin-4-yl)(piperidin-2-yl)methanol hydrochloride]: the “potency of isomer on reversing drug resistance” value (“potency of isomer” below) with SKOV-3TR is “modest but lesser activity”. Further, the “5 milligram solubility in methanol” value in data set [1] was 150 µL.
For the compound `COc1ccc(-c2cc([C@H](O)[C@@H]3CCCCN3)c3ccccc3n2)cc1.Cl` (single isomer, unassigned) [NSC23925d, (2-(4-methoxyphenyl)quinolin-4-yl)(piperidin-2-yl)methanol hydrochloride], the “potency of isomer” value with SKOV-3TR is given as “modest but lesser activity”. In addition, the “5 milligram solubility in methanol” value in data set [1] came to 150 µL.
In the case of `COc1cccc2c1C(=O)c1c(O)c3c(c(O)c1C2=O)C[C@@](O)(C(=O)CO)C[C@@H]3O[C@H]1C[C@H](N)[C@H](O)[C@H](C)O1` [Doxorubicin, reference compound], the IC50 in the data set on SKOV-3TR turned out to be 38.5 ± 2.6 µM; in the data set on MCF-7adr, 3.8 ± 0.12 µM; with SW480TR, 0.84 ± 0.16 µM.
As to `O=C1c2c(O)ccc(O)c2C(=O)c2c(NCCNCCO)ccc(NCCNCCO)c21` [Mitoxantrane, reference compound], the IC50 came out at 0.46 ± 0.06 µM with SKOV-3TR, 0.32 ± 0.06 µM in the data set on MCF-7adr and 0.27 ± 0.03 µM in the data set on SW480TR.
Turning to `COc1ccc(-c2cc([C@@H](O)[C@@H]3CCCCN3)c3ccccc3n2)cc1.Cl` [NSC23925a, (2-(4-methoxyphenyl)quinolin-4-yl)(piperidin-2-yl)methanol hydrochloride], the “potency of isomer” value in the data set with SKOV-3TR is “least potency”. In data set [1], the “5 milligram solubility in methanol” value stood at 650 µL.
Consider `CC(=O)O[C@H]1C(=O)[C@@]2(C)[C@H]([C@H](OC(=O)c3ccccc3)[C@]3(O)C[C@H](OC(=O)[C@H](O)[C@@H](NC(=O)c4ccccc4)c4ccccc4)C(C)=C1C3(C)C)[C@]1(OC(C)=O)CO[C@@H]1C[C@@H]2O` [Paclitaxel, reference compound], for which the figures for the IC50 in the data set on SKOV-3TR, in the data set on MCF-7adr and in the data set with SW480TR were 0.57 ± 0.03 µM, 0.62 ± 0.12 µM and 0.12 ± 0.08 µM, respectively. Further, the “effect on paclitaxel resistant tumor cell growth, single agent” value in data set [2] is “no significant effects”.

The term IC50 denotes the concentration at which inhibition is half-maximal.
